# Test results reported in US10550108B2, “Poly(ADP-ribose) polymerase 1 inhibitors structurally unrelated to NAD” (Institute for Cancer Research, priority 2014, dated 2020).
# Entries after “also recorded” stand apart in the source; their conditions may differ.
# Tested on: normal breast-derived cells HMEK
# Assay: Cell survival assay (alamarBlue), normal cells
# Type: cell-based, human
# Settings: 72 hr
# Description: (§1) Normal cells and cancer-derived cells were plated at a density of 10^4 cells/well (100 μl) in a 96-well plate. On the next day, Olaparib, a NAD-mimetic, or 5F02, 4D11, 5A03, 5H03, 1C09, new non-NAD-like inhibitors, were added. Cells were grown for 72 hr. 20 μl/well of alamarBlue® reagent was added; fluorescence readings were taken.
# (§2) The cytotoxic effects of treatment by classical inhibitor Olaparib and the new inhibitors was compared using breast cancer-derived cells BT474 and normal breast-derived cells HMEK.
row,SMILES,cytotoxicity to normal cells
1,O=C(c1cc(Cc2n[nH]c(=O)c3ccccc23)ccc1F)N1CCN(C(=O)C2CC2)CC1 [Olaparib],killed both normal and cancer cells

# Biological target: PARP-1 (Homo sapiens, UniProt P09874)
# Assay: PARP-1 activation screening assay, 384-well ELISA plate coated with histone H4
# Settings: pilot screen of ICCB Known Bioactives library; pADPr ELISA signal (absorbance at 650 or 450 nm as indicator of PARP-1 activity)
# Description: The screening platform included a PARP1 activation assay in plates coated with histone H4. PARP1 reactions were set up in each well of the plate in the presence of a single small molecule test compound or a positive or negative control compound. The product of the reaction between PARP1 and H4, poly-ADP-ribose, was then quantified, with absorbance at 650 nm or 450 nm used as an indicator of PARP1 activity (FIG. 2A).
# A PARP-1 activation screening assay was designed using a 384-well ELISA plate coated with histone H4 protein-activator. PARP-1 reactions were set up in each well in presence of single a small molecule compound or a positive and a negative control. […] The product of these reactions, poly-(ADP)-ribose, was quantified. Absorbance at 650 or 450 nm was used as an indicator of PARP-1 activity (FIG. 2A). As the test library for this screening assay, the ICCB Known Bioactives library of 480 compounds was used, which includes all popular PARP-1 inhibitors.
# PARP-1, sequence (P09874 whole entry): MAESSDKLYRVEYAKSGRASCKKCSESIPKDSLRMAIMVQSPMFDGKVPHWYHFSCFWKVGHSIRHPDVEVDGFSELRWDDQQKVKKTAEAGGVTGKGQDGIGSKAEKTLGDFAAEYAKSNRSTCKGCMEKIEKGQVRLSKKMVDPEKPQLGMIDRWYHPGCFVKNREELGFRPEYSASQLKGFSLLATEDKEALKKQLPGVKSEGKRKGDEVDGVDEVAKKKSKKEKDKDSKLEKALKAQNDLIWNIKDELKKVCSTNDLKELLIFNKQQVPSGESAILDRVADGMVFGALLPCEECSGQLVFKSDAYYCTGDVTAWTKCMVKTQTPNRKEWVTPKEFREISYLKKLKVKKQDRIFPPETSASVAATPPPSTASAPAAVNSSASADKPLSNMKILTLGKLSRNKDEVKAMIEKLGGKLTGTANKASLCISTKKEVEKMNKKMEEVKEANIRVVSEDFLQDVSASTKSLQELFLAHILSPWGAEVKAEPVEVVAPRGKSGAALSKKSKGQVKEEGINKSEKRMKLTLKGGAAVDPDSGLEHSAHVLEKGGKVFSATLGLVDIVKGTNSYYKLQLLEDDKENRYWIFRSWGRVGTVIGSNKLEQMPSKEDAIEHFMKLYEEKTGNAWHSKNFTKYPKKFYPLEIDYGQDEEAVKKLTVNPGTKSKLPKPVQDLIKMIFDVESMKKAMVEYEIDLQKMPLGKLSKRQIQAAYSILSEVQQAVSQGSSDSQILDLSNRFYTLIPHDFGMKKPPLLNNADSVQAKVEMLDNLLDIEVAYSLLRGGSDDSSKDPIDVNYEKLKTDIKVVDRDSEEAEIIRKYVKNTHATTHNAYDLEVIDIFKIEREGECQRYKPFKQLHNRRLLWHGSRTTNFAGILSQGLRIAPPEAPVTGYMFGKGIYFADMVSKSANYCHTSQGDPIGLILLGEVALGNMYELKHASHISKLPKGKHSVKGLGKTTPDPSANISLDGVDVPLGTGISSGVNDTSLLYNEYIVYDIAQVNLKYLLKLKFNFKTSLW
row,SMILES,Value
1,CN(C)C[C@H](O)Cn1c2ccc(Br)cc2c2cc(Br)ccc21 (racemic) [Wiskostatin],1.90
2,CN(C)C(=O)C(CCN1CCC(O)(c2ccc(Cl)cc2)CC1)(c1ccccc1)c1ccccc1 [Loperamide],2.34
3,CCOC(=O)CN1C(=O)CC(C[C@@H](O)[C@@H]2C[C@@H](C)C[C@H](C)C2=O)CC1=O [Cycloheximide-N-ethylethanoate],1.89
4,O=c1[nH]c2ccccc2c2ccccc12 [6(5H)-Phenanthridinone],0.05
5,C=C1O[C@@](CO)(n2cnc3c(N)ncnc32)[C@H](O)[C@@H]1O [Decoyinine],2.00
6,"Br.NC1CCc2cc(O)c(O)cc2C1 (stereo not drawn) [6,7-ADTN HBr]",0.50
7,[Cl-].c1ccc2c(c1)[I+]c1ccccc1-2 [Diphenyleneiodonium Cl],0.20
8,COc1cccc(-c2cc(=O)c3ccccc3o2)c1N [PD 98059],0.69
9,"CNc1ccc2oc(C[C@H]3O[C@@]4(CC[C@H]3C)O[C@H]([C@H](C)C(=O)c3ccc[nH]3)[C@H](C)C[C@H]4C)nc2c1C(=O)O [Formula A-23187, A-23187]",1.22
10,CC(C)Cn1c(=O)n(C)c(=O)c2[nH]cnc21 [IBMX],0.94
11,CC[N+](C)(CC)CCC[n+]1c(-c2ccccc2)c2cc(N)ccc2c2ccc(N)cc21.[I-].[I-] [Propidium iodide],0.18
12,O=c1c(O)c(-c2ccc(O)c(O)c2)oc2cc(O)cc(O)c12 [Quercetin],0.18
13,N#C/C(=C\c1ccc(O)c(O)c1)C(N)=S [AG213 (Tyrphostin 47)],1.28
14,C=C1[C@@H](C)[C@H]2[C@H](Cc3ccccc3)NC(=O)[C@]23OC(=O)/C=C/[C@H](O)CCC[C@@H](C)C/C=C/[C@H]3[C@@H]1O [Cytochalasin B],2.03
15,NCCNS(=O)(=O)c1cccc2cnccc12 [Formula H9],0.05
16,CC1(C)Oc2ccc(C#N)cc2[C@@H](OC2=CC(=O)CC2)[C@@H]1O [PCO-400],2.01

# Tested on: breast cancer-derived cells BT474
# Assay: Cell survival assay (alamarBlue), cancer-derived cells
# Type: cell-based, human
# Settings: 72 hr
# Description: as §1, §2
row,SMILES,cytotoxic effect on cancer-derived cells
1,O=C(c1cc(Cc2n[nH]c(=O)c3ccccc23)ccc1F)N1CCN(C(=O)C2CC2)CC1 [Olaparib],eliminate cancer-derived cells at similar concentrations; also recorded: killed both normal and cancer cells
